Laboratory results published in patent publication EP3666770A1, “NOVEL HETEROCYCLIC COMPOUNDS AS CDK8/19 INHIBITORS” (Joint Stock Company "Biocad", priority 2017, dated 2019).
Where two headings read alike, the source gives them in different places.

Key:
[1] = Chemical stability in simulated gastric fluid (SGF); type: physicochemical; conditions: SGF without enzymes, pH=1,4; 10 µm; 2 hours at 37°C; substance amount in % after thermostatting
Protocol: (§1) Chemical stability of the compounds described herein was determined in simulated gastric fluid and human blood plasma.
SGF concentrate without enzymes, pH=1,4 (Sigma Ireland, cat#01651) was used as simulated gastric fluid. Initial candidate solution (10 mM in DMSO) was diluted with an SGF working solution to a concentration of […] (test solution). The test solution was incubated in a dry block thermostat for 2 hours at 37°C. HPLC with Agilent 1200 liquid chromatography system (Agilent, USA) was employed to determine peak areas of the compounds in test samples, said peak areas corresponding to the initial test time (prior to incubation) and the final test time (after incubation in a dry block thermostat for 2 hours at 37°C). Chromatographic analysis was performed in a gradient elution regime with a flow rate of 1 mL/min. Substance amount in % in a sample after thermostatting was determined.

[2] = system: MV4-11; assay: Cell-based antiproliferative test (AlamarBlue), MV4-11; conditions: Homo sapiens, MV4-11, 120 h, read-out: MV-4-11 IC50, mkM
Protocol: Antiproliferative activity of CDK8 inhibitors according to the present invention was measured in a cell-based test on continuous cell cultures MV4-11 (biphenotypic myelomonocytic leukemia, ATCC® CRL-9591™), KG-1 (acute myeloid leukemia, ATCC® CCL-246™), HL-60 (acute promyelocytic leukemia, ATCC® CCL-240™) using a vital stain AlamarBlue (ThermoFisher, #DAL1100). The cells were grown in RPMI-1640 (PanEco, #C330p) medium with addition of 10% FBS (Gibco, #16140-071); washed and resuspended in culture medium with 10% FBS (Gibco, #16140-071) in 96-well culture plates (Corning, #3599) with ≈ 10 ×10^3 cells in […] of medium per well. The compounds in question were dissolved in DMSO and diluted with a medium with 10% FBS (Gibco, #16140-071) to a final concentration ranging form 0 to 100 µM. […] of diluted compounds were then added to each well (final DMSO concentration was less than 1%) and incubated under 5% CO2 atmosphere at 37°C for 120 h. After incubating, 15 µL of AlamarBlue (ThermoFisher, #DAL1100) reagent was added per well, contents of plates were mixed in an orbital shaker (Biosan, Latvia) and further incubated for 3-5 h at 37°C under 5% CO2 atmosphere. Number of living cells was estimated using a microplate spectrophotometer (Tecan Infinite M200Pro, Switzerland) measuring fluorescent signal at the excitation wavelength (λEx) of 540 nm and emission wavelength (λEm) of 590 nm.
IC50 was calculated using Magellan 7.2 software (Tecan, Switzerland) approximating experimental points by four-parameter logistic model with the optimization by Levenberg-Marquardt (table 7, table 7).

[3] = Chemical stability in human blood plasma; type: in vitro ADME; conditions: pooled human blood plasma; 10 µM; 4 hours at 37°C; substance amount in % after thermostatting
Protocol: as §1
Determination of stability in human blood plasma was performed using pooled human blood plasma taken from ten healthy donors. The initial candidate solution (10 mM in DMSO) was diluted with pooled blood plasma to a concentration of […] (test solution). The test solution was incubated in a dry block thermostat for 4 hours at 37°C. HPLC with Agilent 1200 liquid chromatography system (Agilent, USA) was employed to determine peak areas of the compounds in test samples, said peak areas corresponding to the initial test time (prior to incubation) and the final test time (after incubation in a dry block thermostat for 4 hours at 37°C), proteins were preliminarily precipitated with acetonitrile. Chromatographic analysis was performed in a gradient elution regime with a flow rate of 1 mL/min. Substance amount in % in a sample after thermostatting was determined.

[4] = Enzyme stability in human liver microsomes; type: in vitro ADME; conditions: pH 7.4; 0,5 mg/mL pooled human liver microsomes; 10 µM compound; 37°C; pH=7,4
Protocol: Measuring of candidates' enzyme stability enabled estimation of the stability of the present compounds towards the action of enzymes in liver microsomes.
Enzyme degradation rate was measured by incubating the reaction mixture in a dry block thermostat at 37°C, said reaction mixture comprising 0,5 mg/mL of pooled human liver microsomes (XenoTech, USA, cat#H2620), 10 µM compound, 2 mM β-nicotinamide adenine dinucleotide (Carbosynth, UK, cat#NN10871) and 4 mM magnesium chloride in 0,1 M sodium-phosphate buffer, pH=7,4. The reaction was quenched with acetonitrile (100 µL of acetonitrile / 100 µL of the reaction mixture). After quenching, the samples were centrifuged at 10000 rpm for 10 minutes. Supernatant fluid was tested by chromatographic technique using Agilent1200 (Agilent, USA). Chromatographic analysis was performed in a gradient elution regime with a flow rate of 1 mL/min. A graph of the logarithm of substance's peak area as a function of time was made. The dependent factor of the line corresponded to the elimination rate constant K based on which the drug's half-life t1/2 and degradation rate CLint were calculated: Elimination rate constant (k) = (−gradient) [formula] [formula] V(μL/mg) = (volume of incubation(μL))/(protein in the incubation(mg)) [formula] [formula]

[5] = General cytotoxicity test on HepG2 cells; type: cell-based; conditions: human, HepG2 cells; 72 h incubation; 200 to 0.78 µM; average values of several tests; read-out: Hep-G2 CC50, mkM
Protocol: Cell viability was assessed using the above method. Table 6. […] The results are presented as average values of activity obtained in several tests.

[6] = 120 h incubation, average values of several tests

| Compound | Stability in SGF, % [1] [%] | IC50 [2, 6] [µM] | Stability in blood plasma, % [3] [%] | microsomal CLint at 10 µM [4] [µL/min/mg] | CC50 at 72 h [5] [µM] | IC50 [2] [µM] |
| --- | --- | --- | --- | --- | --- | --- |
| COc1cc(-c2cnc3[nH]cc(C(=O)c4cccnc4)c3c2)ccc1N(C)C [CDK8-4-25, (5-(4-(Dimethylamino)-3-methoxyphenyl)-1H-pyrrolo[2,3-b]pyridin-3-yl)(pyridin-3-yl)methanone] | 100 | 0.05 | 100 | 22.2 | 4.7 | – |
| Cn1cc(-c2ccc(-c3cncc4ncc(C(=O)N5CC[C@@H](O)C5)cc34)cc2)cn1 [CDK8-3-4, (R)-(3-Hydroxypyrrolidin-1-yl) (5-(4-(1-methyl-1H-pyrazol-4-yl)phenyl)-1,7-naphthyridin-3-yl)methanone] | 100 | 7.51 | 100 | – | 76.4 | – |
| COCCNC(=O)c1cnc2cncc(-c3ccc(-n4ccnc4)cc3)c2c1 [CDK8-3-41] | – | 0.572 | – | – | 200 | – |
| CN1CCN(C(=O)c2cnc3cncc(-c4ccc(-c5cnn(C)c5)cc4)c3c2)CC1 [CDK8-3-30, (4-Methylpiperazin-1-yl)(5-(4-(1-methyl-1H-pyrazol-4-yl)phenyl)-1,7-naphthyridin-3-yl)methanone] | – | 0.412 | – | – | 100 | – |
| N=C(c1ccnc2ccc(-c3ccc(-c4cn[nH]c4)cc3)cc12)N1CCCCC1 [CDK8-5-4i, (6-(4-(1H-Pyrazol-4-yl)phenyl)quinolin-4-yl) (piperidin-1-yl)methanimine] | 98.8 | 4.32 | 100 | 19 | > 100 | – |
| COCCOC(=O)c1cnc2cncc(-c3ccc(-c4cnn(C)c4)cc3)c2c1 [CDK8_3_28, 2-Methoxyethyl-5-[4-(methyl-1-H-pyrazol-4-yl)phenyl]-1,7-naphthyridine-3-carboxylate] | – | 0.871 | – | – | 48.4 | – |
| COc1ccc(-n2cnc3ccc(N4CC(C(=O)N5CCOCC5)C4)cc32)cc1 [CDK8-1-12, (1-(1-(4-Methoxyphenyl)-1H-benzo[d]imidazol-6-yl)azetidin-3-yl)(morpholino) methanone] | 98.1 | 3.38 | 98 | 3 | > 100 | – |
| COC(=O)c1ccc(-n2cnc3c(F)cc(N4CC(C(=O)Nc5ccccc5)C4)cc32)cc1 [CDK8-1-7E, Methyl 4-(6-(3-(phenylcarbamoyl)azetidin-1-yl)-4-fluoro-1H-benzo[d]imidazol-1-yl)benzoate] | – | > 2.5 | – | – | > 100 | – |
| Cn1cc(-c2ccc(-c3cncc4ncc(C(=O)N5CCOCC5)cc34)cc2)cn1 [CDK8-3-33, (5-(4-(1-Methyl-1H-pyrazol-4-yl)phenyl)-1,7-naphthyridin-3-yl)(morpholino)methanone] | – | 2.06 | – | – | 100 | – |
| CN(C)CCN(C)C(=O)c1cnc2cncc(-c3ccc(-c4cnn(C)c4)cc3)c2c1 [CDK8-3-35, N-(2-(Dimethylamino)ethyl)-N-methyl-5-(4-(1-methyl-1H-pyrazol-4-yl)phenyl)-1,7-naphthyridine-3-carboxamide] | – | 1.84 | – | – | 77.4 | – |
| COC1CN(C(=O)c2ccc3nccc(-c4ccc(-c5cn[nH]c5)cc4)c3c2)C1 [CDK8-6-4, (4-(4-(1H-Pyrazol-4-yl)phenyl)quinolin-6-yl)(3-methoxyazetidin-1-yl) methanone] | 100 | 7.79 | 100 | 16.2 | 66.6 | – |
| O=C(C1CN(c2ccc3ncn(-c4ccc(-c5cn[nH]c5)cc4)c3c2)C1)N1CCOCC1 [CDK8-1-4, (1-(1-(4-(1H-pyrazol-4-yl)phenyl)-1H-benzo[d]imidazol-6-yl)azetidin-3-yl) (morpholino)methanone] | 98.2 | 0.7 | 100 | 18.8 | > 100 | – |
| Cn1cc(-c2ccc(-n3cnc4ccc(N5CC(C(=O)N6CCOCC6)C5)c(F)c43)cc2)cn1 [CDK8-1-20, (1-(1-(4-(1-methyl-1H-pyrazol-4-yl)phenyl)-7-fluoro-1H-benzo[d]imidazol-6-yl)azetidin-3-yl) (morpholino)methanone] | 99.4 | > 1 | 100 | 12.4 | > 200 | – |
| Cn1cc(-c2ccc(-c3cncc4ncc(N5CC(C(=O)N6CCOCC6)C5)cc34)cc2)cn1 [CDK8-3-9, (1-(5-(4-(1-Methyl-1H-pyrazol-4-yl)phenyl)-1,7-naphthyridin-3-yl)azetidin-3-yl) (morpholino)methanone] | 100 | 10 | 100 | 8.8 | > 20 | – |
| CN(C)c1ccc(-c2cnc3[nH]cc(C(=O)c4ccncc4)c3c2)cc1O [CDK8-4-9, (5-(4-(Dimethylamino)-3-hydroxyphenyl)-1H-pyrrolo.[2,3-b]pyridin-3-yl) (pyridin-4-yl)methanone] | 99.5 | 2.1 | 100 | 21.6 | > 200 | – |
| O=C(c1ccccn1)c1c[nH]c2ncc(-c3ccc(N4CCOCC4)c(O)c3)cc12 [CDK8-4-3, (5-(3-Hydroxy-4-morpholinophenyl)-1H-pyrrolo[2,3-b]pyridin-3-yl) (pyridin-2-yl) methanone] | 100 | 1.49 | 100 | 22 | > 200 | – |
| Cn1cc(-c2ccc(-c3cncc4ncc(C(=O)N5CCC[C@@H](O)C5)cc34)cc2)cn1 [CDK8-3-20, (R)-3-(Hydroxypiperidin-1-yl)(5-(4-(1-methyl-1H-pyrazol-4-yl)phenyl)-1,7-naphthyridin-3-yl)methanone] | – | – | – | – | – | 5.04 |
| CN1CCN(Cc2ccc(-c3ccnc4ccc(N5CCC(C)(C(N)=O)CC5)cc34)cc2)CC1 [CDK8-6-3, 4-Methyl-1-(4-(4-((4-methylpiperazin-1-yl)methyl)phenyl)quinolin-6-yl) piperidine-4-carboxamide] | 100 | 3.18 | – | 18.6 | > 60 | – |
